One assay has as its system Vibrio harveyi. Briefly: Induction of quorum sensing regulated bioluminescence in Vibrio harveyi by luminescence assay.
The next assay relates to Aliivibrio fischeri. Briefly: Induction of quorum sensing regulated bioluminescence in Vibrio fischeri by luminescence assay relative to natural autoinducer.
Assay [1] concerns Salmonella enterica subsp. enterica serovar Typhimurium. Briefly: Ratio of compound IC50 to DPD IC50 for Salmonella Typhimurium quorum sensing system.
The nature of assay [2]: Inhibition of quorum sensing Salmonella Typhimurium by beta-galactosidase transcription assay in presence of 50 uM DPD. The arrangement: species or system Salmonella enterica subsp. enterica serovar Typhimurium.
Assay [3] in a line: Inhibition of Staphylococcus aureus Quorum sensing system AgrC-I activation after 60 to 90 minutes by beta-lactamase reporter assay. The following applies: read-out: IC50. For orientation: In a reporter assay the amount or activity of a reporter protein is the signal.
Assay [4] in a line: Inhibition of Staphylococcus aureus Quorum sensing system AgrC-II activation after 60 to 90 minutes by beta-lactamase reporter assay. The following applies: read-out: IC50.
Assay [5] is described as follows: Inhibition of Staphylococcus aureus Quorum sensing system AgrC-III activation after 60 to 90 minutes by […].
Assay [6] in a line: Inhibition of Staphylococcus aureus Quorum sensing system AgrC-IV activation after 60 to 90 minutes by beta-lactamase reporter assay.
Assay [7] deals with T1, Transcriptional activator protein LuxR (Aliivibrio fischeri, UniProt P12746).
T1 sequence (P12746 whole entry): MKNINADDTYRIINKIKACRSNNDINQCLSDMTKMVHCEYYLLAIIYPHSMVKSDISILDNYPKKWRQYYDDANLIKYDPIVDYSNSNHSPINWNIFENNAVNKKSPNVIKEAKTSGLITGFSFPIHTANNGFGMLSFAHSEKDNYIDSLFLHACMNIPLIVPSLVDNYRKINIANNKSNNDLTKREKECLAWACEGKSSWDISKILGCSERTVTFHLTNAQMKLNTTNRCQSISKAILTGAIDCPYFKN
Briefly: Agonist activity at Vibrio fischeri luxR receptor in absence of natural autoinducer. In kind it is functional.

A short description of assay [8]: Inhibition of quorum sensing in Pseudomonas aeruginosa assessed as inhibition of LasR-dependent yellow fluorescent protein emission by luminescence assay.
Assay [9] concerns the target T2, Transcriptional activator protein TraR (Agrobacterium tumefaciens, UniProt P33905).
T2 sequence (P33905 whole entry): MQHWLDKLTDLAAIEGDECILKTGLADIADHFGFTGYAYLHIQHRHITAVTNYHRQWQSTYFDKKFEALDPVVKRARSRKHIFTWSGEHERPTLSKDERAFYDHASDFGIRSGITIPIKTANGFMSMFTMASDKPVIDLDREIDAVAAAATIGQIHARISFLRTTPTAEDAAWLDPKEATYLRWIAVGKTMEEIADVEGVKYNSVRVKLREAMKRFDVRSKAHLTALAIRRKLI
The assay can be described thus: Antagonist activity at Agrobacterium tumefaciens TraR receptor in presence of 100 nM 3-oxo-C8-HSL. In kind it is functional.

In assay [10] the target is T1, Transcriptional activator protein LuxR. Briefly: Antagonist activity at Vibrio fischeri luxR receptor in presence of 5 uM 3-oxo-C6-HSL. In kind it is functional.
Assay [11] is described as follows: Inhibition of autoinducer-stimulated quorum sensing regulated bioluminescence in Vibrio fischeri by luminescence assay. The arrangement: species or system Aliivibrio fischeri.
Assay [12] has as its target T3, Transcriptional activator protein LasR (Pseudomonas aeruginosa (strain ATCC 15692 / PAO1 / 1C / PRS 101 / LMG12228), UniProt P25084).
T3 sequence (P25084 whole entry): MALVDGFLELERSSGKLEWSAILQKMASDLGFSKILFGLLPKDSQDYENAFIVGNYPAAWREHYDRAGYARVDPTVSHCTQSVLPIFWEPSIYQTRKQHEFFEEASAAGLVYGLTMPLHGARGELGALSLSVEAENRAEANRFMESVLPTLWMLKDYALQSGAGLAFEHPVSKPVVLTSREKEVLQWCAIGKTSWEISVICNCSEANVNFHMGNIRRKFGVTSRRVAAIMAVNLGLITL
Briefly: Antagonist activity at Pseudomonas aeruginosa LasR receptor expressed in Escherichia coli in presence of 7.5 nM natural auto-inducer 3-oxo-C12-HSL. It is filed as functional.

Assay [13] deals with T3, Transcriptional activator protein LasR. Briefly: Agonist activity at Pseudomonas aeruginosa LasR cognate receptor expressed in Escherichia coli harboring pKDT17 assessed as activation of lasB expression by LacZ reporter gene assay. In kind it is functional.
Assay [14] has the same target. Briefly: Agonist activity at Pseudomonas aeruginosa LasR receptor expressed in Escherichia coli in absence of natural autoinducer. In kind it is functional.
The next assay has as its system PC-3. The assay can be described thus: Growth inhibition of human PC3 cells. It is filed as functional, cell-based.

Where a SMILES comes first, the peptide text is derived from it. Bridges are numbered along the chain shown (N, C = ends).

One may read the EC50 as the concentration needed to bring the measured effect to its halfway point. The IC50 is the concentration needed to halve the response being measured.

In turn, `O=C1[C@@H](O)COC1(O)C(F)(F)F` (stereo partly specified) came in with an EC50 in the assay on Vibrio harveyi of 30000 nM. In the assay with Aliivibrio fischeri, `CC(=O)CCCC(=O)N[C@H]1CCOC1=O` gave an Activity of 10%. For `CCCC(=O)C(=O)[C@@H](O)CO`, in assay [1], the Ratio IC50 was < 10. In addition, in assay [2], the IC50 is 5300 nM. In the case of `CC(=O)N[C@H]1CSC(=O)[C@H](Cc2ccccc2)NC(=O)[C@H](CC(C)C)NC(=O)[C@H](CO)NC(=O)[C@H](CO)NC1=O` (Ac-CSSLF; thioester 1-C), the IC50 in assay [3] turned out to be 272 nM; in assay [4] it was 209 nM; in assay [5], 10 nM; in assay [6], 188 nM. `CC(=O)C(=O)[C@@H](O)CO` gave an EC50 in the assay on Vibrio harveyi of 3000 nM.

As for `O=C(Cc1cccc([N+](=O)[O-])c1)N[C@H]1CCOC1=O`, the midpoint of the response in [7], the EC50, lay at 350 nM. With `CCCCCCCCCNC(=O)CC(=O)c1ccccc1`, the IC50 in assay [8] was determined as 10000 nM. Take `CCCCCCC(=O)N[C@H]1CCOC1=O`: the IC50 in assay [9] amounted to 690 nM; in assay [10] it was 1360 nM. As for `CCCCC(=O)C(=O)[C@@H](O)CO`, in assay [1], the Ratio IC50 was < 10. Besides, the IC50 in assay [2] is 5040 nM. For the molecule `CCCCCCCCCC(=O)N[C@H]1CCOC1=O`, the IC50 in assay [9] came out at 1050 nM; in assay [11], 39.2 nM; in assay [12], 250 nM; in assay [10], 400 nM. `CCCCCCCCCCCC(=O)CC(=O)N[C@H]1CCOC1=O`: the results for the EC50 in assay [13] and in assay [14] were 15 nM and 10 nM, respectively. For `O=C(CCCCCCCCCCCc1ccccc1)N[C@H]1CCOC1=O`, in the assay on PC-3, the IC50 was > 100000 nM.

As to `O=C(Nc1ccccc1NC(=O)c1cccc(Cl)c1)c1cccc(Cl)c1`, the IC50 in [8] was determined as 50000 nM. `CCCCCC(=O)CC(=O)N[C@H]1CCOC1=O`: in assay [13], the EC50 amounted to 150 nM. In the assay on Aliivibrio fischeri, this molecule came in with an Activity of 50%. In [14], `O=C(CC(=O)N[C@H]1CCOC1=O)Cc1ccccc1` came in with an EC50 of 540 nM.

(Values after ChEMBL document CHEMBL1821627, “Medicinal chemistry as a conduit for the modulation of quorum sensing” (J Med Chem, 2010).)
